One data set deals with Ebola virus (EBOV). It counts as cell-based.
In data set [1] the test system is 293T cells transfected with Ebola GP. It counts as cell-based, human.

Consider `CCCCC[C@@H](O)[C@H]1C(=O)O[C@H](C)[C@@H](O)/C=C/C=C/C=C/C=C/C=C(\C)[C@@H](O)C[C@H](O)C[C@H](O)C[C@H](O)C[C@H](O)C[C@H](O)C[C@@H]1O` [filipin], for which, in the data set on Ebola virus (EBOV), the “EBOV infection, viral titer 48 hour post infection” value was “significant inhibition of EBOV infection” and the “virus production when cells recover in medium 4 h after treatment before infection” value is “could produce large amounts of virus”. Further, the “general cytotoxic effect, trypan blue exclusion” value in the data set on Vero E6 cells is listed as “cells were shown to be viable”.
nystatin: the “general cytotoxic effect, trypan blue exclusion” value with Vero E6 cells is given as “cells were shown to be viable”.
methyl-β-cyclodextrin: the “association of Ebola GP with rafts (detergent insoluble fraction) after pre-treatment” value in data set [1] was “almost complete removal of Ebola GP from rafts”.

The record behind these values is patent US20060099225A1 (priority 2004, published 2006).
